Consider one compound from ChEMBL document CHEMBL4304783, “Discovery of a Novel Selective Dual Peroxisome Proliferator-Activated Receptor α/δ Agonist for the Treatment of Primary Biliary Cirrhosis” (ACS Med Chem Lett, 2019).

The structures appear in SMILES notation. Calls of active or inactive are those of the source. No cut-off for these calls is given here.

Data set [1] deals with T1, Peroxisome proliferator-activated receptor alpha (Homo sapiens, UniProt Q07869).
T1 sequence (Q07869 whole entry): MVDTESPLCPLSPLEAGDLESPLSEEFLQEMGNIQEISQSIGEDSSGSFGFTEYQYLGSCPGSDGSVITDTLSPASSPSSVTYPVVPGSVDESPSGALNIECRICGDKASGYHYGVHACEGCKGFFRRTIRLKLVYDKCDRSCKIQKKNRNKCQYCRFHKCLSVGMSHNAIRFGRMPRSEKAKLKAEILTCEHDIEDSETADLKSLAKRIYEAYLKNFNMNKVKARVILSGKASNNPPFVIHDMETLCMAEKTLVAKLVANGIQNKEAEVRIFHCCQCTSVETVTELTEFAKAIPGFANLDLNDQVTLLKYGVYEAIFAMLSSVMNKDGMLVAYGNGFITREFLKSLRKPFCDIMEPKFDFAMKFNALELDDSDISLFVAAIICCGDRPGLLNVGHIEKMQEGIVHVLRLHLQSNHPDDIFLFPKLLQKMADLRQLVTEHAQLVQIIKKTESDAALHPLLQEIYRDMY
The experiment in a line: Agonist activity at PPARalpha (unknown origin) incubated for 3 to 16 hrs by pathhunter nuclear hormone receptor assay.

Data set [2] in a line: Stability in human plasma assessed as remaining compound incubated for 2 hrs. The data set is classed as ADME, cell-free. As to conditions: read-out: Stability.
Data set [3] can be described thus: Protein binding in rat plasma at 2 uM incubated for 4 hrs by LC-MS/MS analysis. In kind it is ADME, cell-free.
The test system of data set [4] is Rattus norvegicus. The experiment in a line: Hepatoprotective activity in Sprague-Dawley rat assessed as reduction in ANIT-stimulated total bilirubin level at 3 mg/kg, ig administered for 8 days by biochemical analysis. The data set is classed as functional, organism-based.
Data set [5] relates to Rattus norvegicus. The experiment in a line: Hepatoprotective activity in Sprague-Dawley rat assessed as reduction in ANIT-stimulated inflammatory score at 3 mg/kg, ig administered for 8 days by hematoxylin and eosin staining based mopho-metric analysis relative to control. In kind it is functional. The arrangement: scale not given: the % may be the effect or the level left.

The nature of data set [6]: Oral bioavailability in C57BL/6J mouse at 10 mg/kg upto 24 hrs by LC-MS/MS analysis. The note with it: in vivo.

Compound `Cc1cc(Cc2cc(-c3ccc(Br)cc3)on2)cc(C)c1OC(C)(C)C(=O)O` displayed an EC50 in data set [1] of 8 nM. Also, the remaining at 2 h in data set [2] turned out to be 88%. The same compound had a fraction unbound at 4 h, 2 µM in data set [3] of under 0.001. Also, in the data set with Rattus norvegicus [4], the outcome was Active. Besides, the Activity with Rattus norvegicus [5] is 30%. In data set [6], this compound registered a bioavailability of 59.8%.

Broadly, the EC50 is the concentration giving half of the maximal effect. A word on the fraction unbound: it is free concentration divided by total concentration. What is called bioavailability is dose-corrected exposure relative to a reference, in per cent.
